# Measured values reported in patent publication US9701556B1, “Compositions, methods, and systems for reducing contamination” (priority 2004, dated 2017).
# Tests used:
# [1] = Treatment of sulfides in municipal wastewater with ferric chelants and hydrogen peroxide; conditions: for Sulfide Remaining, Dose 1 12 ppm Chelant / Sulfide Remaining, Dose 2 6 ppm Chelant: 37.8 ppm H2O2, start 25.4 ppm sulfide; for Sulfide Remaining, Dose 1 20 ppm Chelant / Sulfide Remaining, Dose 2 10 ppm Chelant: 105.8 ppm H2O2, start 42.3 ppm sulfide; for Percentage of Sulfide Treated, Dose 1 12 ppm Chelant 37.8 ppm H2O2 / Percentage of Sulfide Treated, Dose 2 6 ppm Chelant 37.8 ppm H2O2 / Percentage of Sulfide Treated, Dose 1 20 ppm Chelant 105.8 ppm H2O2 / Percentage of Sulfide Treated, Dose 2 10 ppm Chelant 105.8 ppm H2O2: after 30 minutes; for Percentage of Sulfide Treated, Dose 1 12 ppm Chelant 37.8 ppm H2O2 / Percentage of Sulfide Treated, Dose 2 6 ppm Chelant 37.8 ppm H2O2: 1.5:1.0 ratio of peroxide to sulfide; for Percentage of Sulfide Treated, Dose 1 20 ppm Chelant 105.8 ppm H2O2 / Percentage of Sulfide Treated, Dose 2 10 ppm Chelant 105.8 ppm H2O2: 2.5:1.0 ratio of peroxide to sulfide; for sulfide treatment compared with hydrogen peroxide alone, in words: over 30 minutes of treatment
# [2] = Treatment of sulfides in municipal wastewater with ferric chelants and ozone; conditions: 4 ppm ferric chelant where added; for sulfide remaining: ozone at ~13.4 ppm
# [3] = cited from earlier work
# [4] = Series One, contact time 5 minutes
# [5] = Series One, contact time 15 minutes
# [6] = Series One, contact time 30 minutes
# [7] = Series One, no H2O2, start 25.4 ppm sulfide, contact time 30 minutes
# [8] = Series Two, 20 ppm chelant, no H2O2, start 42.3 ppm sulfide, contact time 30 minutes
# [9] = Series Two, contact time 5 minutes
# [10] = Series Two, contact time 15 minutes
# [11] = Series Two, contact time 30 minutes
molecule,measurement,setting,value
Ferric Gallate,"Sulfide Remaining, Dose 1 12 ppm Chelant",[1]; [4],18.4 ppm
same,"Sulfide Remaining, Dose 2 6 ppm Chelant",[1]; [4],18.0 ppm
same,"Sulfide Remaining, Dose 1 12 ppm Chelant",[1]; [5],14.0 ppm
same,"Sulfide Remaining, Dose 2 6 ppm Chelant",[1]; [5],13.6 ppm
same,"Sulfide Remaining, Dose 1 12 ppm Chelant",[1]; [6],10.4 ppm
same,"Sulfide Remaining, Dose 2 6 ppm Chelant",[1]; [6],11.2 ppm
same,"Sulfide Remaining, Dose 4 Chelant Only",[1]; [7],24.7 ppm
same,"Sulfide Remaining, Dose 4 Chelant Only",[1]; [8],43.0 ppm
same,"Sulfide Remaining, Dose 1 20 ppm Chelant",[1]; [9],29.2 ppm
same,"Sulfide Remaining, Dose 2 10 ppm Chelant",[1]; [9],27.8 ppm
same,"Sulfide Remaining, Dose 1 20 ppm Chelant",[1]; [10],20.2 ppm
same,"Sulfide Remaining, Dose 2 10 ppm Chelant",[1]; [10],22.2 ppm
same,"Sulfide Remaining, Dose 1 20 ppm Chelant",[1]; [11],13.2 ppm
same,"Sulfide Remaining, Dose 2 10 ppm Chelant",[1]; [11],13.1 ppm
same,"Percentage of Sulfide Treated, Dose 1 12 ppm Chelant 37.8 ppm H2O2",[1],59.1
same,"Percentage of Sulfide Treated, Dose 2 6 ppm Chelant 37.8 ppm H2O2",[1],55.9
same,"Percentage of Sulfide Treated, Dose 1 20 ppm Chelant 105.8 ppm H2O2",[1],68.7
same,"Percentage of Sulfide Treated, Dose 2 10 ppm Chelant 105.8 ppm H2O2",[1],69.0
same,"sulfide treatment compared with hydrogen peroxide alone, in words",[1],did not perform well overall
Ferric Ascorbate,"Sulfide Remaining, Dose 1 12 ppm Chelant",[1]; [4],16.6 ppm
same,"Sulfide Remaining, Dose 2 6 ppm Chelant",[1]; [4],17.2 ppm
same,"Sulfide Remaining, Dose 1 12 ppm Chelant",[1]; [5],11.8 ppm
same,"Sulfide Remaining, Dose 2 6 ppm Chelant",[1]; [5],12.4 ppm
same,"Sulfide Remaining, Dose 1 12 ppm Chelant",[1]; [6],9.6 ppm
same,"Sulfide Remaining, Dose 2 6 ppm Chelant",[1]; [6],10.4 ppm
same,"Sulfide Remaining, Dose 4 Chelant Only",[1]; [7],24.6 ppm
same,"Sulfide Remaining, Dose 4 Chelant Only",[1]; [8],41.8 ppm
same,"Sulfide Remaining, Dose 1 20 ppm Chelant",[1]; [9],26.9 ppm
same,"Sulfide Remaining, Dose 2 10 ppm Chelant",[1]; [9],27.2 ppm
same,"Sulfide Remaining, Dose 1 20 ppm Chelant",[1]; [10],17.7 ppm
same,"Sulfide Remaining, Dose 2 10 ppm Chelant",[1]; [10],19.7 ppm
same,"Sulfide Remaining, Dose 1 20 ppm Chelant",[1]; [11],10.8 ppm
same,"Sulfide Remaining, Dose 2 10 ppm Chelant",[1]; [11],11.9 ppm
same,"Percentage of Sulfide Treated, Dose 1 12 ppm Chelant 37.8 ppm H2O2",[1],62.2
same,"Percentage of Sulfide Treated, Dose 2 6 ppm Chelant 37.8 ppm H2O2",[1],59.0
same,"Percentage of Sulfide Treated, Dose 1 20 ppm Chelant 105.8 ppm H2O2",[1],74.5
same,"Percentage of Sulfide Treated, Dose 2 10 ppm Chelant 105.8 ppm H2O2",[1],71.9
same,"sulfide treatment compared with hydrogen peroxide alone, in words",[1],some modest improvement over hydrogen peroxide treatment alone
"O=[O+][O-] [Ozone only, Ozone]",sulfide remaining,"[2]; start 13.70, contact time 5 minutes",8.05 ppm
same,sulfide remaining,"[2]; start 13.70, contact time 10 minutes",7.50 ppm
same,sulfide remaining,"[2]; start 13.70, contact time 20 minutes",7.40 ppm
same,Overall total percentage of sulfide reduction,[2]; ozone,46%
O=C([O-])[C@H](O)[C@@H](O)[C@H](O)[C@H](O)CO.[Na+] [Sodium gluconate],readily biodegradable,[3]; after 2 days,98%
same,solubility in water,[3],very soluble in water
O=C([O-])CC(O)(CC(=O)[O-])C(=O)[O-].[Fe+3] [Ferric Citrate],"Sulfide Remaining, Dose 1 12 ppm Chelant",[1]; [4],17.8 ppm
same,"Sulfide Remaining, Dose 2 6 ppm Chelant",[1]; [4],18.1 ppm
same,"Sulfide Remaining, Dose 1 12 ppm Chelant",[1]; [5],14.1 ppm
same,"Sulfide Remaining, Dose 2 6 ppm Chelant",[1]; [5],15.8 ppm
same,"Sulfide Remaining, Dose 1 12 ppm Chelant",[1]; [6],10.5 ppm
same,"Sulfide Remaining, Dose 2 6 ppm Chelant",[1]; [6],12.4 ppm
same,"Sulfide Remaining, Dose 4 Chelant Only",[1]; [7],25.0 ppm
same,"Sulfide Remaining, Dose 4 Chelant Only",[1]; [8],42.0 ppm
same,"Sulfide Remaining, Dose 1 20 ppm Chelant",[1]; [9],30.1 ppm
same,"Sulfide Remaining, Dose 2 10 ppm Chelant",[1]; [9],29.9 ppm
same,"Sulfide Remaining, Dose 1 20 ppm Chelant",[1]; [10],19.6 ppm
same,"Sulfide Remaining, Dose 2 10 ppm Chelant",[1]; [10],20.2 ppm
same,"Sulfide Remaining, Dose 1 20 ppm Chelant",[1]; [11],14.3 ppm
same,"Sulfide Remaining, Dose 2 10 ppm Chelant",[1]; [11],12.9 ppm
same,"Percentage of Sulfide Treated, Dose 1 12 ppm Chelant 37.8 ppm H2O2",[1],58.7
same,"Percentage of Sulfide Treated, Dose 2 6 ppm Chelant 37.8 ppm H2O2",[1],51.2
same,"Percentage of Sulfide Treated, Dose 1 20 ppm Chelant 105.8 ppm H2O2",[1],66.2
same,"Percentage of Sulfide Treated, Dose 2 10 ppm Chelant 105.8 ppm H2O2",[1],69.5
